Source: patent US8898047B2, “Methods for identifying inhibitors against viruses that use a class I fusion protein” (Janssen Pharmaceuticals NV, priority 2008, dated 2014)

Columns and labels:
RSV = RSV antiviral cellular assay; assay type: cell-based, hRSV; conditions: for EC50: human respiratory syncytial virus, pEC50 = -log10 EC50 (M), RSV antiviral cellular assay, read-out: In vitro activity (pEC50) (converted); for log reduction in activity on structural modification: reduction of antiviral activity versus parent compound of the Compound Z series
[1] = target: IQN57 (HR1 hydrophobic pocket) (Human respiratory syncytial virus A, UniProt P03420); conditions: 30 μM compound, 20° C., HR1 alone
Description: 20 μM biotinylated-IQN57 was immobilized on a Streptavidin-certified sensor chip (GE Healthcare, Diegem, Belgium) surface in PBS at a flow rate of 10 μl/min and a contact time of 7 min. A reference flow cell was used as a control for nonspecific binding and refractive index changes. […] Several PBS+5% dimethylsulfoxide (DMSO; Sigma Aldrich NV, Bornem, Belgium) buffer blanks were injected over the course of an experiment for double referencing. The flow system was washed between sample injections with running buffer containing 50% DMSO, and the immobilized surface was regenerated with one injection of 0.2% sodiumdodecylsulfate for 30 sec. SPR biosensor data were collected on a BIAcore S51. All experiments were conducted at 20° C.

[2] = target: biotin-labeled IQN57 / FITC-labeled C45 (HR1-CTC and HR2) (Human respiratory syncytial virus A, UniProt P03420); conditions: 6HB-formation ELISA, FIG. 3E
Description: White streptavidin-coated 96-well plates (NoAb Biodiscoveries, Mississauga, Canada) were blocked with PBS+5% BSA for 1 h and then washed three times with PBS. 10 nM biotin-labeled IQN57 dissolved in PBS+1% BSA was non-covalently bound to the surfaces of the 96-well plate for 30 min and then wells were washed again 3 times with PBS. […] Subsequently, POD-conjugated anti-FITC Fab fragment (1:5000) (Roche Applied Science, Vilvoorde, Belgium) in PBS+1% BSA was administered to the wells and incubated for 30 min. Finally, wells were washed again three times with PBS, Supersignal West Femto chemiluminescent substrate from Pierce (Perbio Science, Erembodegem, Belgium) added and signals were analyzed on a ViewLux UltraHTS microplate reader (Perkin Elmer, Zaventem, Belgium). Assay conditions without addition of biotin-labeled IQN57, FITC-labeled C45, POD-conjugated anti-FITC Fab fragment, or chemiluminescent substrate were included as negative controls or control of background signal in each of the experiments. In addition, assay conditions with saquinavir, Fuzeon® (T20), or the HIV-1-derived HR1 peptide (biotin-labeled IQN36) were used as specificity controls in each experiment.

[3] = target: T1, HR1 (IQN57) and HR2 (C45) heptad-repeat peptides (Human respiratory syncytial virus A, UniProt P03420); assay type: binding, hRSV; conditions: competition assay, FIG. 3C
T1 construct: IQ trimerisation segment (GCN4-pIQI-type coiled coil)

HR1-derived peptide = conditions: prior art (Cianci et al.); cited from earlier work

IQN57 (HR1 hydrophobic pocket), sequence (P03420 153-209): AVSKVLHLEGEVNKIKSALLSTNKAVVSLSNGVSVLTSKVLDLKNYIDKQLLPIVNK
biotin-labeled IQN57 / FITC-labeled C45 (HR1-CTC and HR2), sequence (P03420 476-520): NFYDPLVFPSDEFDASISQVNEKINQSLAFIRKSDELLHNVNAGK
biotin-labeled IQN57 / FITC-labeled C45 (HR1-CTC and HR2), sequence (P03420 153-209): as the sequence (P03420 153-209) above
T1 sequence (P03420 153-209): as above
T1 sequence (P03420 476-520): as the sequence (P03420 476-520) above

EC50 (RSV)	Compound	log reduction in activity on structural modification (RSV)	other results
2.51e-09 M	Cc1cccc(NCc2ccc3nc(NCCCN4CCOCC4)n(Cc4nc(C)ccc4O)c3c2)c1 [Compound 2]	1.3 log	–
–	Cc1ccc(CCCO)c(NCc2ccc3nc(NCCCN4CCOCC4)n(Cc4nc(C)ccc4O)c3c2)c1 [Compound 1, 2-[6-{[2-(3-hydroxy-propyl)-5-methyl-phenylamino]-methyl}-2-(3-morpholin-4-yl-propylamino)-benzoimidazol-1-ylmethyl]-6-methyl-pyridin-3-ol]	–	Binding to HR1 (IQN57) by SPR [1]: do not bind to the HR1 hydrophobic pocket alone; Effect on interaction of HR2 (C45) with HR1-CTC (IQN57) [2]: facilitate the interaction of HR2 with the HR1-CTC; Competition with compound X for binding [3]: competed for the same binding pocket
1.58e-07 M	Cc1ccc(O)c(Cn2c(NCCCN3CCOCC3)nc3ccccc32)n1 [Compound 3]	–	further log decrease in potency (RSV; further truncation of the methylamino-toluene moiety, relative to compound 2): 0.8 log
–	O=c1n(Cc2nc3ccccc3n2CCCCO)c2cnccc2n1C1CC1 [BMS433771, reference compound]	–	Binding to an HR1-derived peptide alone (HR1-derived peptide): relatively weak; Binding to HR1 (IQN57) by SPR [1]: do not bind to the HR1 hydrophobic pocket alone; Effect on interaction of HR2 (C45) with HR1-CTC (IQN57) [2]: facilitate the interaction of HR2 with the HR1-CTC
2.51e-09 M	COc1ccc(C)nc1Cn1c(NCCCN2CCOCC2)nc2ccc(CNc3cc(C)ccc3CCCO)cc21 [Compound 6]	1.3 log	–
1.26e-08 M	Cc1ccc(CCCO)c(NCc2ccc3ncn(Cc4nc(C)ccc4O)c3c2)c1 [Compound 5]	2.6 log	–
3.16e-11 M	Cc1ccc(CCCO)c(NCc2ccc3nc(N)n(Cc4nc(C)ccc4O)c3c2)c1 [Compound 4]	–	log improvement in activity (RSV; removal of the morpholinopropyl group): 0.6 log
